Source: publication PMC9329436, “Optimization of the 4-anilinoquin(az)oline scaffold as epidermal growth factor receptor (EGFR) inhibitors for chordoma utilizing a toxicology profiling assay platform” (Scientific Reports, 2022)
Read-outs that look alike come from different tables or passages of the source.

Legend:
Type in all cases: biochemical
[1] = target: 320 wild-type protein kinases (Homo sapiens, UniProt O00311); conditions: singlicate
Excerpt: (§1) Table S4. Profiling of two compounds at two concentrations against 320 wild-type protein kinases; singlicate measurement; Residual activities (% of control).

[2] = target: 320 wild-type protein kinases (Homo sapiens, UniProt O75914); conditions: singlicate
Excerpt: as §1

[3] = target: 320 wild-type protein kinases (Homo sapiens, UniProt P08581); conditions: MET, singlicate
Excerpt: as §1

[4] = target: 320 wild-type protein kinases (Homo sapiens, UniProt P29597); conditions: kinase TYK2, singlicate
Excerpt: as §1

[5] = target: 320 wild-type protein kinases (Homo sapiens, UniProt P31751); conditions: singlicate
Excerpt: as §1

[6] = target: 320 wild-type protein kinases (Homo sapiens, UniProt P36507); conditions: singlicate
Excerpt: as §1

[7] = target: 320 wild-type protein kinases (Homo sapiens, UniProt Q00526); conditions: singlicate
Excerpt: as §1

[8] = target: T1, 320 wild-type protein kinases (Homo sapiens, UniProt Q04771); conditions: singlicate
T1 sequence (Q04771 21-509): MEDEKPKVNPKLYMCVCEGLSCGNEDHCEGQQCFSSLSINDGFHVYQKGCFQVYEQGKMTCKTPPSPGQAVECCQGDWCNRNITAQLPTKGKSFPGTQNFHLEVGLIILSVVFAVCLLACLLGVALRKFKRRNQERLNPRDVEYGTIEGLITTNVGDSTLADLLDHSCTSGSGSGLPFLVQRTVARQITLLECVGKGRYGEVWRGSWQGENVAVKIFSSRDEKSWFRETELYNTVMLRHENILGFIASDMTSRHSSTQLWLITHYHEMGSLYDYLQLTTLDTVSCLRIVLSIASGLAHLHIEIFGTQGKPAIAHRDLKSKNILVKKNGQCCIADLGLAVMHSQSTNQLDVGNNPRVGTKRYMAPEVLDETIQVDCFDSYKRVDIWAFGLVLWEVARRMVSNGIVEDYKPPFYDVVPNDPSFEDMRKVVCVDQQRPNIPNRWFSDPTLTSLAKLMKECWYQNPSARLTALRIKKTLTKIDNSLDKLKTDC
Excerpt: as §1

[9] = target: 320 wild-type protein kinases (Homo sapiens, UniProt Q13153); conditions: singlicate
Excerpt: as §1

[10] = target: T2, 320 wild-type protein kinases (Homo sapiens, UniProt Q6XUX3); conditions: kinase RIPK5, singlicate
T2 sequence (Q6XUX3 1-929): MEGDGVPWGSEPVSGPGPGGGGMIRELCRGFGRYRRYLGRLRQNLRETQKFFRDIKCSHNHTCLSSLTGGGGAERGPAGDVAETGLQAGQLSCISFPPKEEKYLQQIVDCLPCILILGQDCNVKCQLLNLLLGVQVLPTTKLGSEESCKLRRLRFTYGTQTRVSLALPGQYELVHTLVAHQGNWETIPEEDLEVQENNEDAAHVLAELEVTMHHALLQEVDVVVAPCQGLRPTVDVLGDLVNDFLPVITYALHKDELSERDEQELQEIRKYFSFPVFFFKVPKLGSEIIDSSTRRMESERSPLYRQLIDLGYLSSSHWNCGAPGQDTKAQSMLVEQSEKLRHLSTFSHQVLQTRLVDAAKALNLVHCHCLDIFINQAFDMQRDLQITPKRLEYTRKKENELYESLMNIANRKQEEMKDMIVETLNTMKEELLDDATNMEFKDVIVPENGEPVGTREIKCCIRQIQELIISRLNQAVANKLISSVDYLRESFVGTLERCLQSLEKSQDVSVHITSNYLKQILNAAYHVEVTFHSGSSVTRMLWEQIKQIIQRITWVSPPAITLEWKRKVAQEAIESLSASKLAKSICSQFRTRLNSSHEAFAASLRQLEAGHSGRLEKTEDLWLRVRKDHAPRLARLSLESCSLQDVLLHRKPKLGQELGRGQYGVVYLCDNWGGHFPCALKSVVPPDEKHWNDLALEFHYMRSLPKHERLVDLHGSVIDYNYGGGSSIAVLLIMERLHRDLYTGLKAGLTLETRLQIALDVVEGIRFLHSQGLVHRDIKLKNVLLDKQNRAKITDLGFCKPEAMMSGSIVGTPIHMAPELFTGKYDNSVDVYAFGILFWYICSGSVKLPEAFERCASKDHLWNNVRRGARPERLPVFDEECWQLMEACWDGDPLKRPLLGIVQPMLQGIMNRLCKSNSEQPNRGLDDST
Excerpt: as §1

[11] = target: T3, 320 wild-type protein kinases (Homo sapiens, UniProt Q99640); conditions: singlicate
T3 sequence (Q99640 1-499): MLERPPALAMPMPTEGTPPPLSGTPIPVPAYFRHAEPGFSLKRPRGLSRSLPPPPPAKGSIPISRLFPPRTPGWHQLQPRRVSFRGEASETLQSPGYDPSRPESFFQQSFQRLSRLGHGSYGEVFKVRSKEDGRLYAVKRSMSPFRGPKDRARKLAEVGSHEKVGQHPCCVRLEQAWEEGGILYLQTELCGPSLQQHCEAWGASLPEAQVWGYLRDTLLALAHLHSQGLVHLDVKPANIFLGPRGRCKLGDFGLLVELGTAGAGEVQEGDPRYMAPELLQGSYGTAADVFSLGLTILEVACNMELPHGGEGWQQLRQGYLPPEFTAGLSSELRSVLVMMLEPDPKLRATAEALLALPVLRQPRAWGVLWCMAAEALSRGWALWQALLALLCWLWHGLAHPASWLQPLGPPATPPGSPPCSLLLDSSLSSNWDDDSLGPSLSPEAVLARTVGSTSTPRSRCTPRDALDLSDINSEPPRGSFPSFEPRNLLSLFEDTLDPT
Excerpt: as §1

Sequence of 320 wild-type protein kinases (Homo sapiens, UniProt P31751) (P31751 whole entry): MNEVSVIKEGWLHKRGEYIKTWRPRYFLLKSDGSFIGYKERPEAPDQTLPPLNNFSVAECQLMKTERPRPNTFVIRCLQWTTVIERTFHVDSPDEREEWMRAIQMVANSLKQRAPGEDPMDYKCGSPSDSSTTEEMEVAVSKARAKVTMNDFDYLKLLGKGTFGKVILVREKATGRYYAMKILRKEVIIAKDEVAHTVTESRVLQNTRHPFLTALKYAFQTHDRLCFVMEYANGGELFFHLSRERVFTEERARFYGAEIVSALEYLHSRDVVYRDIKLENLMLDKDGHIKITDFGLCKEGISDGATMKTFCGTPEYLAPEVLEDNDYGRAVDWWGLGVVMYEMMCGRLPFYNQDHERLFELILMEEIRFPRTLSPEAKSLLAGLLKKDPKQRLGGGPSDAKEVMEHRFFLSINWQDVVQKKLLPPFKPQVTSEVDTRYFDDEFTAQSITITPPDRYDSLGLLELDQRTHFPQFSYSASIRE
Sequence of 320 wild-type protein kinases (Homo sapiens, UniProt P08581) (P08581 25-1390): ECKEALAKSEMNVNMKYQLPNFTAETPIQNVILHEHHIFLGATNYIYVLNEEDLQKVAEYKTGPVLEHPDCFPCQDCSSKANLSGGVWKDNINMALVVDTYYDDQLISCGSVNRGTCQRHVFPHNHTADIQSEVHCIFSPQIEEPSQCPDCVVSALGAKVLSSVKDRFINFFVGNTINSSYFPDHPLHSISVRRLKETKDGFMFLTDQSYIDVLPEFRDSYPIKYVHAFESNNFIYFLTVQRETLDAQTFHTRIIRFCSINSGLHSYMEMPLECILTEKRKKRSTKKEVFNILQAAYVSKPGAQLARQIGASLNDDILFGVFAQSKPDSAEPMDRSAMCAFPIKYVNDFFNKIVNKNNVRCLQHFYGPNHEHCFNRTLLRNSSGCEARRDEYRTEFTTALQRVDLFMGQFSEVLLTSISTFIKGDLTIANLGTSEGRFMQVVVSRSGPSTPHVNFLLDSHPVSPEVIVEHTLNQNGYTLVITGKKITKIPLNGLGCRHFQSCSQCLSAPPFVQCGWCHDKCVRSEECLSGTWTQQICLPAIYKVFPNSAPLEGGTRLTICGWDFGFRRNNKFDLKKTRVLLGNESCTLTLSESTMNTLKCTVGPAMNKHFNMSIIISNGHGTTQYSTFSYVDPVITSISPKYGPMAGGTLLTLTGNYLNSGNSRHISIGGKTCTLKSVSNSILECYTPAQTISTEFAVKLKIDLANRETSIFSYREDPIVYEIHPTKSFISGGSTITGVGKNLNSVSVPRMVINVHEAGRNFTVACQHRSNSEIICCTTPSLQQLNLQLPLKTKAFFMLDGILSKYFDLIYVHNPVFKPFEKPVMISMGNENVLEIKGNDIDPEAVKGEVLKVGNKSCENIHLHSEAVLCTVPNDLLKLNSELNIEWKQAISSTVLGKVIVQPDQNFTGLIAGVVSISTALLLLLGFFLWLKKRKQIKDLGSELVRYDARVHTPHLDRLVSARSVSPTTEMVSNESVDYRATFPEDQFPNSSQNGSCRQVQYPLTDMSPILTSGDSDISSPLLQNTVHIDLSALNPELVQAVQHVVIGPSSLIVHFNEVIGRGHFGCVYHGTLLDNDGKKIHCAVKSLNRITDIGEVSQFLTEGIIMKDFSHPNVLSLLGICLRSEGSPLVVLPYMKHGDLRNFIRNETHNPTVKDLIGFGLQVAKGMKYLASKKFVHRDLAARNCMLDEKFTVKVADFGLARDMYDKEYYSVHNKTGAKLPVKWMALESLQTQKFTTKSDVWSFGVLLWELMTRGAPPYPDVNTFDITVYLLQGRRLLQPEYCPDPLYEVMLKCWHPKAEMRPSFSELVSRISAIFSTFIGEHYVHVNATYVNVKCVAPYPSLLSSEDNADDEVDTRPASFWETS
Sequence of 320 wild-type protein kinases (Homo sapiens, UniProt O75914) (O75914 whole entry): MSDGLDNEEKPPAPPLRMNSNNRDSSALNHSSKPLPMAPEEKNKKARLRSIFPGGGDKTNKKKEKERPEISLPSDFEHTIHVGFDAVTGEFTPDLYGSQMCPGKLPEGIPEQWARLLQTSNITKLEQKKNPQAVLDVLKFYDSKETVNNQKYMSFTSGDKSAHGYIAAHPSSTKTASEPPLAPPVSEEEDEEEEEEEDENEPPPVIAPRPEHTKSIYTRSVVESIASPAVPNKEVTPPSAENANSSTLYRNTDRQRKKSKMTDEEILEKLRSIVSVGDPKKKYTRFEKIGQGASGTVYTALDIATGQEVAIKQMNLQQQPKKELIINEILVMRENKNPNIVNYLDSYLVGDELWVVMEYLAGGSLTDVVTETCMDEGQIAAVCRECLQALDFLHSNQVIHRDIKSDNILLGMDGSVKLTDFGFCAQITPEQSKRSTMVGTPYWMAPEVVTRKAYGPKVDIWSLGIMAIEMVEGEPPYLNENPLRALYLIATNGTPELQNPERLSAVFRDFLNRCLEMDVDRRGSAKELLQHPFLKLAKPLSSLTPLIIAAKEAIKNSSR
Sequence of 320 wild-type protein kinases (Homo sapiens, UniProt O00311) (O00311 whole entry): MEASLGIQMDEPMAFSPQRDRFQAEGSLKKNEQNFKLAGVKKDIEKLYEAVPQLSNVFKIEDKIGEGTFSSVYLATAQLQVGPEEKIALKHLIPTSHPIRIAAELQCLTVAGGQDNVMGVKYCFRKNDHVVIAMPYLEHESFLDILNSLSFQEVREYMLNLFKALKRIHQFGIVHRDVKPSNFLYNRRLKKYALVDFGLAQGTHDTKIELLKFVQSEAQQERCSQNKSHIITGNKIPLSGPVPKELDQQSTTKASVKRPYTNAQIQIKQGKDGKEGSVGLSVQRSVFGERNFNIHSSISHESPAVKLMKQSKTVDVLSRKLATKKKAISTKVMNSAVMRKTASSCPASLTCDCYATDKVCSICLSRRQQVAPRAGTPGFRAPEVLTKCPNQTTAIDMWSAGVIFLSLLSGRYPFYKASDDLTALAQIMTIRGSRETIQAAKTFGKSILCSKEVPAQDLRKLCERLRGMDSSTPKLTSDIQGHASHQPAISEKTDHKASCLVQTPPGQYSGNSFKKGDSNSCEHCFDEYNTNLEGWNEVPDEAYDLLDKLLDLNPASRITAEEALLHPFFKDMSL
Sequence of 320 wild-type protein kinases (Homo sapiens, UniProt P29597) (P29597 whole entry): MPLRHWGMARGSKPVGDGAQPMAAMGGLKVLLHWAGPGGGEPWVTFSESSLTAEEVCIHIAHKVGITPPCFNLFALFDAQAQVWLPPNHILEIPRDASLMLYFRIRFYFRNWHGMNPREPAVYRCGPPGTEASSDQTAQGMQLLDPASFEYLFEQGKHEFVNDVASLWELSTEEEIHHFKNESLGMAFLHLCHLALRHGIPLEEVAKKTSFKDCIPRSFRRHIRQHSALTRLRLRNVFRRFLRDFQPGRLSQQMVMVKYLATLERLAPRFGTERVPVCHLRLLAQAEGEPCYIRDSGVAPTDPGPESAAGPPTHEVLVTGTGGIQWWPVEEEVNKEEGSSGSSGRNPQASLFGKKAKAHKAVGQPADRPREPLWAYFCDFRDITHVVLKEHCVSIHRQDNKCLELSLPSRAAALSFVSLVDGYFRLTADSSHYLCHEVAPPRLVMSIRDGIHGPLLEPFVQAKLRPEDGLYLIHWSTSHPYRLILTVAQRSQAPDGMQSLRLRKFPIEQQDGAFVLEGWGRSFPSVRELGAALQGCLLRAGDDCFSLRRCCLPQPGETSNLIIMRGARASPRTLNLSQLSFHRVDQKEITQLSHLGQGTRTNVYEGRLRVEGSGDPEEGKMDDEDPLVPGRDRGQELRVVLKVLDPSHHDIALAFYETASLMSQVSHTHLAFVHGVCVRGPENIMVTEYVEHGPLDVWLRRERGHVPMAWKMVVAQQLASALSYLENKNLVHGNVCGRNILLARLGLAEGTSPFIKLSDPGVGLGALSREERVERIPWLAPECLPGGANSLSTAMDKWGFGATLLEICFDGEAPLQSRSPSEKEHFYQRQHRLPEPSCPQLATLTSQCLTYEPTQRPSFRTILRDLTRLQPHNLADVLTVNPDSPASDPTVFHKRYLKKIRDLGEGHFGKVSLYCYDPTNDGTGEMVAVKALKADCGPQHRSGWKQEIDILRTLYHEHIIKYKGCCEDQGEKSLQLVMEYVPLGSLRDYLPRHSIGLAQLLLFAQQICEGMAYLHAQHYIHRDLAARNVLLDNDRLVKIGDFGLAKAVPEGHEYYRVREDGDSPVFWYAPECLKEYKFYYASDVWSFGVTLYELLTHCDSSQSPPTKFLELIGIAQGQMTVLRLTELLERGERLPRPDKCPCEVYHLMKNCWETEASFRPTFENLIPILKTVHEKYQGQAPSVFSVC
Sequence of 320 wild-type protein kinases (Homo sapiens, UniProt Q13153) (Q13153 whole entry): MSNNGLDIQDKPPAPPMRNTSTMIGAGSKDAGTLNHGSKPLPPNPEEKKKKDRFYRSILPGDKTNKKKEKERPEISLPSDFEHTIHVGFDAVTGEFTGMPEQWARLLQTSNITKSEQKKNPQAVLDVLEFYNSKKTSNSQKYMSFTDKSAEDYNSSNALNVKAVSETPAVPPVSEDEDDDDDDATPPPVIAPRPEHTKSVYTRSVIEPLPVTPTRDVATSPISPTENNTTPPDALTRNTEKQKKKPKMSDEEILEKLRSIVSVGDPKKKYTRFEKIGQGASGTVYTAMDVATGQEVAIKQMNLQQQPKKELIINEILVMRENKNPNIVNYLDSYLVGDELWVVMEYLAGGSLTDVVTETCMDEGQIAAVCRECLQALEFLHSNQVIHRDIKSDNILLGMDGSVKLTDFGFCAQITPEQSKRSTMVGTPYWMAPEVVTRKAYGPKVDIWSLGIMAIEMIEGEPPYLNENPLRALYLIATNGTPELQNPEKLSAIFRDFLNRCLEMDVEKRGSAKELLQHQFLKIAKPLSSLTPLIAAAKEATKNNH
Sequence of 320 wild-type protein kinases (Homo sapiens, UniProt Q00526) (Q00526 whole entry): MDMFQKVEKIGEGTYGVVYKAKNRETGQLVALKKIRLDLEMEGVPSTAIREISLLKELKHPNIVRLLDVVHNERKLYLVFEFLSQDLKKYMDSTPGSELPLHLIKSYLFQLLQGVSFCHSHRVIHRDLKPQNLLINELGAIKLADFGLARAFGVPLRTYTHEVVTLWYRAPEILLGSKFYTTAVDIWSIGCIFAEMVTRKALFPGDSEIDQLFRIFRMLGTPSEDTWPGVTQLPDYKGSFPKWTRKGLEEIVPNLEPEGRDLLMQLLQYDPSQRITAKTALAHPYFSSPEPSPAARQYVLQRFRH

## C#Cc1cc(Nc2ncnc3cc(I)ccc23)ccc1Cl [Compound 41]
[1]; CDC7/DBF4, 1.0E-06 M
  Residual activity: 90 % of control
[1]; CDC7/DBF4, 1.0E-07 M
  Residual activity: 89 % of control
[2]; PAK3, 1.0E-06 M
  Residual activity: 75 % of control
[2]; PAK3, 1.0E-07 M
  Residual activity: 96 % of control
[3]; 1.0E-06 M
  Residual activity: 89 % of control
[3]; 1.0E-07 M
  Residual activity: 93 % of control
[4]; assay conc. 1.0E-06 M
  Residual activity, TYK2: 94 % of control
[4]; assay conc. 1.0E-07 M
  Residual activity, TYK2: 101 % of control
[5]; AKT2 aa107-481, 1.0E-06 M
  Residual activity: 86 % of control
[5]; AKT2 aa107-481, 1.0E-07 M
  Residual activity: 98 % of control
[6]; MEK2, 1.0E-06 M
  Residual activity: 80 % of control
[6]; MEK2, 1.0E-07 M
  Residual activity: 101 % of control
[7]; CDK3/CycC, 1.0E-06 M
  Residual activity: 87 % of control
[7]; CDK3/CycC, 1.0E-07 M
  Residual activity: 90 % of control
[7]; CDK3/CycE1, 1.0E-06 M
  Residual activity: 96 % of control
[7]; CDK3/CycE1, 1.0E-07 M
  Residual activity: 115 % of control
[8]; ACV-R1, 1.0E-06 M
  Residual activity: 86 % of control
[8]; ACV-R1, 1.0E-07 M
  Residual activity: 91 % of control
[9]; PAK1, 1.0E-06 M
  Residual activity: 92 % of control
[9]; PAK1, 1.0E-07 M
  Residual activity: 87 % of control
[10]; assay conc. 1.0E-06 M
  Residual activity, RIPK5: 85 % of control
[10]; assay conc. 1.0E-07 M
  Residual activity, RIPK5: 96 % of control
[11]; PKMYT1, 1.0E-06 M
  Residual activity: 79 % of control
[11]; PKMYT1, 1.0E-07 M
  Residual activity: 88 % of control

## C#Cc1cc(Nc2ncnc3cc(OC)c(OC)cc23)ccc1Cl [Compound 45]
[1]; CDC7/DBF4, 1.0E-06 M
  Residual activity: 88 % of control
[1]; CDC7/DBF4, 1.0E-07 M
  Residual activity: 107 % of control
[2]; PAK3, 1.0E-06 M
  Residual activity: 92 % of control
[2]; PAK3, 1.0E-07 M
  Residual activity: 98 % of control
[3]; 1.0E-06 M
  Residual activity: 70 % of control
[3]; 1.0E-07 M
  Residual activity: 99 % of control
[4]; assay conc. 1.0E-06 M
  Residual activity, TYK2: 114 % of control
[4]; assay conc. 1.0E-07 M
  Residual activity, TYK2: 96 % of control
[5]; AKT2 aa107-481, 1.0E-06 M
  Residual activity: 94 % of control
[5]; AKT2 aa107-481, 1.0E-07 M
  Residual activity: 112 % of control
[6]; MEK2, 1.0E-06 M
  Residual activity: 105 % of control
[6]; MEK2, 1.0E-07 M
  Residual activity: 102 % of control
[7]; CDK3/CycC, 1.0E-06 M
  Residual activity: 86 % of control
[7]; CDK3/CycC, 1.0E-07 M
  Residual activity: 92 % of control
[7]; CDK3/CycE1, 1.0E-06 M
  Residual activity: 102 % of control
[7]; CDK3/CycE1, 1.0E-07 M
  Residual activity: 117 % of control
[8]; ACV-R1, 1.0E-06 M
  Residual activity: 93 % of control
[8]; ACV-R1, 1.0E-07 M
  Residual activity: 98 % of control
[9]; PAK1, 1.0E-06 M
  Residual activity: 95 % of control
[9]; PAK1, 1.0E-07 M
  Residual activity: 91 % of control
[10]; assay conc. 1.0E-06 M
  Residual activity, RIPK5: 71 % of control
[10]; assay conc. 1.0E-07 M
  Residual activity, RIPK5: 84 % of control
[11]; PKMYT1, 1.0E-06 M
  Residual activity: 95 % of control
[11]; PKMYT1, 1.0E-07 M
  Residual activity: 114 % of control
